Columns and labels:
[1] = format: cell-based; details: OECD test guideline TG471 (±S9 mix)
Experimental: (§1) As a safety test, AMES test was performed according to OECD test guideline TG471 (±S9 mix), and the result was negative. Oral toxicity was tested according to OECD test guideline TG423. […] Skin stimulation was tested according to OECD test guideline TG404, and the result was PII=0.5. Skin sensitizing potential was tested according to OECD test guideline TG442B.

[2] = Oral toxicity according to OECD test guideline TG423; format: in vivo
Experimental: as §1

[3] = format: in vivo; details: OECD test guideline TG404
Experimental: as §1

[4] = Skin sensitization test by local lymph node assay (LLNA), SI value of the materials; format: in vivo; details: for SI (skin sensitization SI value): material as such, local lymph node assay (LLNA) method
Experimental: The amine value of the dispersant polymer, a skin sensitization SI value indicating a skin sensitizing potential, and the colony count by Ames test indicating carcinogenicity were obtained in the manners described below.
The SI value was measured by a skin sensitization test according to a local lymph node assay (LLNA) method.
Oral toxicity was tested according to OECD test guideline TG423. […] Skin sensitizing potential was tested according to OECD test guideline TG442B.

Molecule | SI (skin sensitization SI value) [4] | other results
C=CC(=O)N(C)CC(=O)OC [Example A1-1, N-acryloyl-N-methylglycinemethyl ester] | (see Synthesis example 1) SI = 1.00 | AMES test result [1]: negative; LD50 ([2]; in vivo, po, 2000 mg/kg): ≥ 2000 mg/kg; Fatal cases (oral toxicity) ([2]; six cases): none of six cases was a fatal case; PII (skin stimulation) [3]: 0.5; SI value (skin sensitizing potential) ([4]; OECD test guideline TG442B): 1.00; Influence on the health of human bodies (conclusion of the safety tests) ([4]; in vivo, po): significantly uninfluential on the health of human bodies
C=CC(=O)N(C)CC(=O)OCC [Example A1-2, N-acryloyl-N-methylglycineethyl ester] | (see Synthesis example 2) SI = 1.02 | 
C=CC(=O)N(C)C(C)C(=O)OC (stereo not shown) [Example A1-3, N-acryloyl-N-methylalaninemethyl ester] | (see Synthesis example 3) SI = 1.12 | 
C=C(C)C(=O)OCCOCCOC(=O)C(=C)C [Example A2-1] | Shin- Nakamura Chemical Co., Ltd. “2G” SI = 1.05 Ltd. | 
C=C(C)C(=O)OCC(CC)(COC(=O)C(=C)C)COC(=O)C(=C)C [Example A2-3] | Shin- Nakamura Chemical Co., Ltd. “TMPT” SI = 1.03 | 
C=C(C)C(=O)OCC(COC(=O)C(=C)C)OC(C)=O [Example A2-6, 2-acetyl-1,3-glycerol dimethacrylate] | (see Synthesis example 5) SI = 1.40 | 
C=C(C)C(=O)OCCO [Example A3-1, 2-hydroxyethyl methacrylate] | Tokyo Chemical Industry Co., Ltd. “2-hydroxyethyl methacrylate” SI = 1.26 | 
C=CC(=O)OCC(CC)(COC(=O)C=C)COC(=O)C=C [Example A4-1] | Toagosei Co., Ltd. “M-3547” SI = 3.42 | 
Isobornyl acrylate [Example A3-2] | Osaka Organic Chemical Industry Ltd. “Isobomyl acrylate” SI = 8.30 | SI (skin sensitization SI value) ([4]; listed as IBXA): 8.30

From patent publication US20210061929A1, “ACTIVE-ENERGY-RAY-CURABLE COMPOSITION, ACTIVE-ENERGY-RAY-CURABLE INK, COMPOSITION STORED CONTAINER, TWO-DIMENSIONAL OR THREE-DIMENSIONAL IMAGE FORMING METHOD AND APPARATUS, CURED PRODUCT, AND DECORATED PRODUCT” (priority 2019, published 2021)
